Source: article PMC10892836, “Hybrid Molecules of Azithromycin with Chloramphenicol and Metronidazole: Synthesis and Study of Antibacterial Properties” (Pharmaceuticals, 2024)
Converted amounts (≈) assume the structure as drawn.

Columns and labels:
[1] = test system: E. coli ΔtolC pErmCL-ErmC; test: MIC, broth microdilution, E. coli ΔtolC panel; type: cell-based; details: for MIC: Escherichia coli
Experimental: In order to create the construct pErmCL-ErmC, the vector backbone was amplified using pZa-fwd (5′-TAAGAATTCTCTAGCCCG-3′) and pZa-rev (5′-[…]-3′) primers, and the pERMZα plasmid as a template. The ermC gene was amplified from the pERMCTP plasmid with ErmC-fwd (5′-[…]-3′) and ErmC-rev (5′-TAGGCGGGCTAGAGAATTC-3′) primers. The joining of two DNA fragments was performed using the NEBuilder® HiFi DNA Assembly Master Mix (New England Biolabs, Ipswich, MA, USA). Sequences of intermediate products and the final construct were confirmed by Sanger sequencing with appropriate primers.
(§1) The E. coli ΔtolC strain was also transformed with the pErmC, pErmCL-ErmC, and pERMZα plasmids. The resulting strains were grown at 37 °C in LB medium supplied with 100 μg/mL ampicillin.
(§2) MIC values for a panel of E. coli ΔtolC strains were determined via the broth microdilution assay as described here with minor modifications. Briefly, the overnight E. coli culture was diluted to an OD600 of 0.01 in the fresh LB medium supplied with 100 μg/mL ampicillin, if required. Then, the cells were additionally incubated for 1–1.5 h at 37 °C with shaking at 200 rpm (Shaker-Incubator ES-20/80, BioSan, Riga, Latvia). Meanwhile, 100 μL of the liquid growth medium was placed in each well of a 96-well sterile plate (200 μL was placed in column 1). Solutions of tested compounds were added in the first column of the plate at 2 times the final concentration of 200 μg/mL. Then, 2-fold serial dilutions were performed. Immediately before use, bacterial inoculum was diluted (1:100) in the growth medium, and 100 μL of it was transferred in each well except for the sterility control column. The plate was incubated overnight (16–20 h) at 37 °C with constant shaking at 200 rpm (Shaker-Incubator ES-20/80, BioSan, Riga Latvia). Cell growth was assessed by scanning the OD600 with a VICTOR X5 Multilabel Plate Reader (PerkinElmer, Waltham, MA, USA).
(§3) Minimum inhibitory concentration (MIC) was defined as the lowest concentration of a chemical compound that inhibits the visible growth of the bacterial strain. At least three replicates of MIC measurements were performed.

[2] = test system: Propionibacterium acnes 55; test: MIC, agar dilution, anaerobic bacteria (CLSI M11-A9); type: cell-based; details: Cutibacterium acnes; P. acnes 55, anaerobic clinical isolate
E. coli ΔtolC = test: MIC, broth microdilution, E. coli ΔtolC panel; type: cell-based; details: Escherichia coli
Excerpt: The E. coli JW5503 strain with a deletion of the tolC gene (referred to here as E. coli ΔtolC) was kindly provided by Prof. Hironori Niki, National Institute of Genetics, Japan. The E. coli BW25113 strain with a partial deletion of the lptD gene, codons 330 to 352 (referred to here as E. coli lptD^mut) was kindly provided by Prof. Alexander S. Mankin, University of Illinois, Chicago, IL, USA [44]. The E. coli ΔtolC strain was transformed with the pDualrep2 (Amp^R) plasmid, whereas the E. coli lptD^mut strain was transformed with the pDualrep2 (Kan^R) plasmid (not yet published). Both E. coli strains were grown at 37 °C in Luria–Bertani (LB) medium supplemented with either 100 μg/mL ampicillin or 50 μg/mL kanamycin.
as §2, §3

[3] = test system: cell-free bacterial translation system based on the E. coli S30 lysate; test: In vitro translation in a cell-free bacterial system (firefly luciferase synthesis); type: biochemical
Experimental: The inhibition of firefly luciferase (Fluc) synthesis by new azithromycin derivatives was assessed with the E. coli S30 Extract System for Linear Templates (Promega, Madison, WI, USA). Each reaction (5 μL total volume) was supplied with 0.1 mM mixture of all canonical amino acids, 4 U of RiboLock RNase Inhibitor (Thermo Fisher Scientific, Waltham, MA, USA), 0.1 mM of D-luciferin (Sigma-Aldrich, Burlington, MA, USA), 50 ng of firefly luciferase (Fluc) mRNA, and a chemical compound at a final concentration, as indicated in the main text, or nuclease-free water instead. Before the addition of mRNA, reaction tubes were pre-incubated at RT for 5 min and then placed back on ice. After the addition of mRNA, reaction mixtures were immediately subjected to continuous chemiluminescence measurement using the VICTOR X5 Multilabel Plate Reader (PerkinElmer, Waltham, MA, USA) at 37 °C for 30 min. Maximal rates of the firefly luciferase (Fluc) accumulation were calculated using the OriginPro 7.5 software. The values were normalized to a positive control (nuclease-free water, assigned a value of 100%). The results were visualized using the QtiPlot software (version 0.9.8.9).

70S E. coli ribosomes = test: Competition-binding assay with BODIPY-ERY (fluorescence anisotropy); details: displacement of BODIPY-ERY; means, 95% confidence intervals; read-out: Apparent dissociation constant KD
Experimental: Affinity of compounds to the 70S E. coli ribosomes (isolated from the E. coli MRE600 strain according to a published procedure) was evaluated with a competition-binding assay using fluorescently labeled erythromycin (BODIPY-ERY) as described earlier. Briefly, BODIPY-ERY (16 nM) was mixed with ribosomes (34 nM) in 384-well plates in the buffer containing 20 mM HEPES-KOH (pH 7.5), 50 mM NH4Cl, 10 mM Mg(CH3CO2)2, 4 mM β-mercaptoethanol, and 0.05% (v/v) Tween-20. Solutions of the tested compounds were added to the obtained complexes to final concentrations from 1 to 1000 nM and incubated for 2 h at 30 °C. The values of fluorescence anisotropy were obtained using the VICTOR X5 Multilabel Plate Reader (PerkinElmer, Waltham, MA, USA). Filters of 485 and 535 nm were used for excitation and emission, respectively. To calculate the apparent dissociation constants, the assumption that the competitive equilibrium binding of two ligands occurs at a single binding site was used. For each compound, at least 2 replicates were performed. Values of apparent dissociation constants are given as means with 95% confidence intervals. The results were visualized using the GraphPad Prism software (version 8.0.1).

[4] = test system: Streptococcus pneumoniae ATCC 6305; test: MIC, broth microdilution (CLSI); type: cell-based; details: ATCC6305, S. pneumoniae ATCC 6305, Table S3
Experimental: To evaluate the antimicrobial activity of hybrid molecules, clinical and reference strains obtained from the Laboratory of Medical Microbiology of the State Scientific Center of Antibiotics (Moscow, Russia) were used. The activity of azithromycin derivatives conjugated with chloramphenicol was tested on the following reference strains: Streptococcus pneumoniae ATCC 49619, Staphylococcus aureus ATCC 29213, and Escherichia coli ATCC 25922. Additionally, azithromycin derivatives conjugated with metronidazole were tested on the Streptococcus agalactiae 1Cp strain, Streptococcus pneumoniae ATCC 6305 strain (see Table S3, Supplementary Materials), on the anaerobic Gram-positive Clostridium sporogenes ATCC 19404 strain, and Propionibacterium acnes 55 clinical isolate.
Minimum inhibitory concentration (MIC) values for facultative anaerobic bacteria were determined using the broth microdilution method outlined in the CLSI guidelines. Initially, all compounds were dissolved in dimethyl sulfoxide (DMSO) to achieve a concentration of 10 mg/mL. Subsequently, they were diluted with the Mueller–Hinton nutrient broth (MHB) supplemented with 5% defibrinated horse blood (for Streptococcus spp.) to a concentration of 64 μg/mL. […]

[5] = test system: ribosome stalling on ermCL mRNA; test: Toe-printing (primer extension inhibition) analysis on ermCL mRNA; type: biochemical; details: 50 μM (chloramphenicol 30 μM)
Experimental: The toe-printing (primer extension inhibition) analysis of azithromycin derivatives was carried out essentially as previously described with some minor modifications, as indicated below. The DNA template ErmCL was generated by PCR using two overlapping primers, ErmCL-fwd (5′-[…]-3′) and ErmCL-rev (5′-[…]-3′). Before the addition of the DNA template to reaction mixtures at the in vitro translation step, tubes were pre-incubated at RT for 5 min. Moreover, phenol-chloroform extraction of reverse transcription products was replaced with DNA purification using the QIAquick® PCR Purification Kit (Qiagen, Hilden, Germany) according to the manufacturer’s protocol.
Figure 4 Toe-printing (or primer extension inhibition) analysis of azithromycin derivatives on ermCL mRNA. Ribosome stalling is detected via reverse transcription in a cell-free bacterial transcription–translation coupled system. The toe-printing bands are marked with colored arrowheads, and the A-site codons (except for the start codon, P-site codon is indicated) occupied by the stalled ribosomes are indicated in the mRNA sequence with the corresponding colors. The stop codon is marked with an asterisk. All compounds but chloramphenicol (CLM) were tested at 50 μM. Chloramphenicol (CLM) was tested at 30 μM. DMSO was used as a negative control at 0.25% final concentration. Thiostrepton (THS) was used to indicate the translation start site.

E. coli ΔtolC pErmC = test: MIC, broth microdilution, E. coli ΔtolC panel; type: cell-based; details: Escherichia coli
Experimental: as §1, §2, §3

E. coli ΔtolC pERMZα = test: MIC, broth microdilution, E. coli ΔtolC panel; type: cell-based; details: Escherichia coli
Experimental: as §1, §2, §3

[6] = test system: Clostridium sporogenes ATCC 19404; test: MIC, agar dilution, anaerobic bacteria (CLSI M11-A9); type: cell-based; details: ATCC19404, C. sporogenes ATCC 19404, anaerobic
Experimental: The antimicrobial activity against anaerobic bacteria was evaluated using the agar dilution method in accordance with the CLSI document M11-A9 [58]. Twofold serial dilutions of compounds, at 10 times the desired concentration, were prepared in water and diluted (1:10) with the Brucella Agar medium containing 5% defibrinated horse blood, 5 mg/L hemin, and 1 mg/L vitamin K. The resulting plates were inoculated with approximately 10^5 CFU per spot using a replicator and incubated anaerobically at 36 °C for 48 h.
as §3

[7] = test system: Staphylococcus aureus ATCC 29213; test: MIC, broth microdilution (CLSI); type: cell-based; details: ATCC29213, S. aureus ATCC 29213
Experimental: (§4) Minimum inhibitory concentration (MIC) values for facultative anaerobic bacteria were determined using the broth microdilution method outlined in the CLSI guidelines. Initially, all compounds were dissolved in dimethyl sulfoxide (DMSO) to achieve a concentration of 10 mg/mL. Subsequently, they were diluted with the Mueller–Hinton nutrient broth (MHB) supplemented with 5% defibrinated horse blood (for Streptococcus spp.) to a concentration of 64 μg/mL. Following 2-fold serial dilutions of the substances, bacterial cultures in the log growth phase were added to 96-well plates at a concentration of 2.5–5 × 10^5 CFU/mL, and the plates were incubated at 37 °C for 16–20 h.
as §3

[8] = test system: Streptococcus pneumoniae ATCC 49619; test: MIC, broth microdilution (CLSI); type: cell-based
Experimental: as §4, §3

[9] = test system: Escherichia coli ATCC 25922; test: MIC, broth microdilution (CLSI); type: cell-based; details: ATCC25922, E. coli ATCC 25922
Experimental: as §4, §3

[10] = test system: Streptococcus agalactiae 1Cp; test: MIC, broth microdilution (CLSI); type: cell-based; details: S. agalactiae 1Cp
Experimental: as §4, §3

[11] = ATCC49619, S. pneumoniae ATCC 49619, Tables 2 and 3

Row | Structure (SMILES) | Fold increase in the MIC value on E. coli ΔtolC pErmCL-ErmC compared to E. coli ΔtolC [1] [fold] | MIC [1] [µg/mL] | MIC [2] [µg/mL] | MIC (E. coli ΔtolC) [µg/mL] | Relative luciferase activity (relative maximal rate of Fluc accumulation) ([3]; final concentration 5 μM, water control = 100%) [%] | Kd (70S E. coli ribosomes) [nM] | MIC [4] [µg/mL] | Ribosome stalling pattern on ermCL mRNA [5] | MIC (E. coli ΔtolC pErmC) [µg/mL] | MIC (E. coli ΔtolC pERMZα) [µg/mL] | MIC [6] [µg/mL] | MIC [7] [µg/mL] | MIC ([8]; ATCC49619, S. pneumoniae ATCC 49619, Table S3, comparison with 2′-O-deacetyl metabolites) [µg/mL] | MIC [8, 11] [µg/mL] | MIC [9] [µg/mL] | MIC ([10]; Table 3) [µg/mL] | MIC ([10]; Table S3, comparison with 2′-O-deacetyl metabolites) [µg/mL] | Inhibition of protein synthesis in vitro ([3]; concentration of 50 μM (Figure 2B))
1 | CC[C@H]1OC(=O)[C@H](C)[C@@H](O[C@H]2C[C@@](C)(OC)[C@@H](O)[C@H](C)O2)[C@H](C)[C@@H](O[C@@H]2O[C@H](C)C[C@H](N(C)C)[C@H]2O)[C@](C)(O)C[C@@H](C)CN(C)[C@H](C)[C@@H](O)[C@]1(C)O [AZT, azithromycin] | 4 | 3.1 (≈ 4.14 µM) | < 0.06 | 0.8 (≈ 1.07 µM) | 0.3 | 0.4 ± 0.1 | 0.03 (≈ 0.0401 µM) | induces ribosome stalling when GUA (Val) or AGC (Ser) codons enter the A-site of the ribosome | > 200 | 0.8 (≈ 1.07 µM) | 4 (≈ 5.34 µM) | 0.5 (≈ 0.668 µM) | 0.03 | 0.06 (≈ 0.0801 µM) | 2 (≈ 2.67 µM) | 0.015 (≈ 0.02 µM) | 0.03 | 
2 | Cc1ncc([N+](=O)[O-])n1CCO [MNZ, Metronidazole] |  | > 200 | > 32 | > 200 |  |  |  |  | > 200 | > 200 | 8 (≈ 46.7 µM) | > 32 |  | > 32 |  | > 32 |  | no inhibition was observed
